We go through four compounds from US20250041313A1, “COMBINATION THERAPY FOR TREATMENT OF CANCER” (CITY OF HOPE, priority 2023, published 2025).

One may read the IC50 as the point on the concentration scale where inhibition reaches its midpoint.

The test system of assay [1] is SCLC. The settings on record: relapsed / second-line SCLC patients; cited from earlier work.
In assay [2] the test system is SBC3 cells. The assay is described as follows: Imaris quantification of mitochondrial and nuclear areas/morphology. The assay is classed as cell-based, human. The settings on record: SBC3. As to the method:
(§1) Imaris 9.9.0 (Bitplane, AG), with Surfaces and Cells modules, was used to generate mitochondria morphology data from 2D images and 2D Z-stack subsets. Surfaces were used to evaluate individual mitochondria from cell monolayers and spheroids. Detection parameters were optimized for visible mitochondria and nuclei in each group with varying signal intensities. Roundness ratios were calculated from Surface generated Bounding Box 00 Length measurements. Object lengths less than 0.1 μm were excluded, and lengths greater than 1.26 μm were separately analyzed as clusters. Thresholds were uniformly applied to roundness ratios to categorize mitochondria morphology as elongated (<0.599), intermediate (≥0.600-0.649), or round/fragmentated (≥0.650). The percentage of cells from total number is based on a ratio. A perfectly round object has a ratio of 1.0. The Cells module was used to detect and quantify mitochondria and nucleus area from cell monolayers. Identical parameters were applied to all groups with cell boundary detection based on mitochondria signals. Imaris includes nuclei in cytoplasm measurements, so mitochondrial area is calculated by subtracting nucleus area from cell cytoplasm area. Abnormal nuclei were excluded (<100 μm^2, >750 μm^2).
MitoTracker Red and Hoechst 33342 were used to validate Teri and Leflu effects on intact mitochondrial morphology in SBC3 and SBC5 cells. M1 and MDIVI1 compounds were used as positive controls because they are promoters of mitochondrial fusion. Mitochondrial and nuclear areas were quantified by analyzing object surface area and intensity in Imaris 9.9.0.

Assay [3] relates to SBC3 xenograft. The assay is described as follows: SBC3 mouse xenograft, Carbo/Leflu study. In kind it is in vivo. Here is the method:
(§2) Athymic nude nu/nu mice were obtained from Charles River, Wilmington, MA, and were acclimated for a week before beginning the experiment. All animal experiments were carried out in accordance with a protocol approved by the Institutional Animal Care and Use Committee COH (IACUC #16004). For treatments, mice were divided into 4 groups with five mice per group and subcutaneously injected into one flank with 2×10^6 SBC3 or SBC5 cells suspensions in 100 μl of PBS. Treatment started on the 14th day when tumors became palpable. Two in vivo studies were done in this project. SBC3 and SBC 5 xenograft with i) vehicle control, ii) […] 50 mg/kg, iii) Leflu 7.5 mg/kg, and iv) […]/Leflu. SBC3 with i) vehicle control, ii) Lur 0.5 mg/kg, iii) Leflu 3.8 mg/kg, and iv) Lur/Leflu. Treatments were given to mice via i.p. twice a week for 6 weeks. Animals were examined daily for signs of tumor growth. Tumors were measured in two dimensions using calipers and body weights were recorded. Animals were photographed on days 1, 5, 10, 15, 20, 25, 30, 35, and 40 after treatment. Tumors were removed on day 40 and photographed. At the end of the study, the mice were euthanized by CO2 asphyxiation followed by cervical dislocation. The tumor weights were compared between groups using an unpaired Student's t-test. A portion of the tumor was fixed in 10% buffered formaldehyde solution and paraffin-embedded for immuno-staining. FFPE tumor sections were stained with pDRP Ser^616 antibody. Tumor sections were deparaffinized and rehydrated, followed by heat-mediated antigen retrieval (pH 6, Dako). After permeabilization and blocking, tumor sections were stained with pDRP1 Ser^616 antibody overnight, washed and incubated with Alexa 488 secondary antibody for one hour, mounted and observed on an LSM 880 with a 10×/0.45 NA objective (Carl Zeiss). Immunofluorescent confocal images were acquired for each treatment (magnification:100×). Mean immunofluorescence intensities were calculated with ZEN 2.3 Lite software.

Assay [4] has as its system SBC5 xenograft. The assay can be described thus: SBC5 mouse xenograft, Carbo/Leflu study. In kind it is in vivo. The settings on record: Carbo 50 mg/kg, Leflu 7.5 mg/kg, i.p. twice a week. As to the method:
as §2, with “A portion of the tumor was fixed in 10% buffered formaldehyde solution and paraffin-embedded for immuno-staining. FFPE tumor sections were stained with pDRP Ser^616 antibody. Tumor sections were deparaffinized and rehydrated, followed by heat-mediated antigen retrieval (pH 6, Dako). After permeabilization and blocking, tumor sections were stained with pDRP1 Ser^616 antibody overnight, washed and incubated with Alexa 488 secondary antibody for one hour, mounted and observed on an LSM 880 with a 10×/0.45 NA objective (Carl Zeiss). Immunofluorescent confocal images were acquired for each treatment (magnification:100×).” left out

For assay [5], the system named is SBC3 cells. The assay is described as follows: LC-MS of nucleotides, nucleosides and nucleobases in cell pellets. In kind it is cell-based, human. Also noted: unit not given here. Here is the method: These studies were performed by Creative Proteomics in their facility in Shirley, NY. Each sample was placed into 250 μL of 80% methanol. Tissue samples were weighed in 2-mL Eppendorf tubes, and 80% methanol was added at 10 μL per mg of raw tissue. The tissue and cell samples were then homogenized on a MM 400 mill mixer with the aid of two 4-mm metal beads at a shaking frequency of 30 Hz for 2 min and the homogenization step was repeated twice. The samples were placed at −20° C. for 1 h and then centrifuged at 21,000×g for 10 min. The clear supernatants were collected for LC-MS quantitation. Protein content was measured from protein pellets by Bradford protein assays and used to normalize metabolite concentrations from cell pellets. A stock solution contained standard substances of all the targeted nucleotides, nucleosides, and nucleobases were prepared at 200 nmol/mL for each in an internal standard solution of ^13C- and/or ^15N-labeling AMP, ATP, GMP, GTP, UMP, UTP, adenine and adenosine. This solution was serially diluted with the same solution to prepare 10-point calibration solutions in a concentration range of 0.0001 to 50 μM. 10 μL of the supernatant of each sample was mixed with 90 μL of the internal standard solution. 10 μL aliquots of the sample solutions and the standard solutions were injected into a C18 LC column (2.1*150 mm, 1.9 μm) to run UPLC-MRM/MS on a Waters Acquity UPLC system coupled to a Sciex QTRAP 6500 Plus mass spectrometer operated in the negative-ion mode for detection of nucleotides. The mobile phase was a triethylamine buffer (A) and acetonitrile/methanol (1:1) (B) for binary gradient elution (5% to 60% B in 25 min), at 0.25 mL/min and 55° C. For quantitation of nucleosides and nucleobases, 10-μL aliquots of the sample solutions and the standard solutions were injected onto a polar reversed-phase C18 column (2.1*100 mm, 1.6 μm) to run UPLC-MRM/MS on a Waters Acquity UPLC system coupled to a Sciex QTRAP 6500 Plus mass spectrometer operated in the positive-ion mode. The mobile phase was 0.1% formic acid-ammonium formate buffer (A) and methanol (B) for binary gradient elution (0% to 40% B in 15 min), at 0.25 mL/min and 30° C. Concentrations of the detected nucleotides, nucleosides or nucleobases in the UPLC-MRM/MS runs were calculated with internal-standard calibration by interpolating the constructed linear-regression curves of individual compounds, with the analyte-to-internal standard peak area ratios measured from the sample solutions.
The effect of treatment on the concentration of purines and pyrimidines for both cell lines and xenograft were modelled as concentration=Treatment1+Treatment2+Treatment1*Treatment2. For cell lines, Treatment 1-2 were […] and Teri, while for the xenografts—Lur and Leflu respectively. The significance of the effects was ascertained by p-values associated with the coefficients of the model (20). The p-values were FDR corrected to account for repeated testing. The coefficient for the interaction term (Treatment1*Treatment2) and its associated p-value correspond to the synergistic effect of the two treatments. Coefficients and p-values for the rest of the terms indicate significance of each treatment alone. Statistical analysis was conducted in R.

Assay [6] has as its system SBC3 cells. The assay can be described thus: CCK-8 cell viability/cytotoxicity assay, 72 h. The assay is classed as cell-based, human. The conditions noted are these: SBC3, CCK-8 72 h, fixed concentrations of Teri and Carbo; read-out: IC50, single treatment and combination treatment. Here is the method:
The expression levels of DRP1 and DHODH in SCLC lines were compared with non-malignant BEAS 2B cells. […] Previous studies have shown that Leflu and its active metabolite Teri regulate mitochondrial morphology (9,10,26). […] In vitro cytotoxicity effect of Teri and Leflu was tested in a panel of SCLC cell lines. Ten SCLC cell lines were treated with increasing concentrations of each drug for 72 h.
Isobologram and CI50 values were calculated using the Chou-Talalay method and IC50 to find synergism (FIG. 3B).

For assay [7], the system named is SBC5 cells. The assay can be described thus: Imaris quantification of mitochondrial and nuclear areas/morphology. In kind it is cell-based, human. The conditions noted are these: SBC5, 10 μM. Here is the method: as §1
Next, we performed the same analysis with SBC5 cells. […] Mitochondrial elongation in SBC3 cells treated with Teri and Leflu is visible and correlates with Imaris Surface results. […] Although mitochondrial areas of SBC5 cells were not affected by Teri and Leflu treatments, elongations of individual mitochondria were detected with each treatment (FIG. 2I). […] Therefore, it is important to investigate the effects of Teri and Leflu on mitochondrial morphology and cell survival in combination with chemotherapeutic drugs.

As to `CC[C@@]1(O)C(=O)OCc2c1cc1n(c2=O)Cc2cc3c(CN(C)C)c(O)ccc3nc2-1` [topotecan, Topotecan], in assay [1], the ORR is reported as 24% and the “median PFS” value is 3.4 months.
For `CC(=NNc1c(Cl)cc(Cl)cc1Cl)c1cc(Cl)ccc1O` [M1], in assay [2], the “Mitochondrial elongation (Airyscan imaging)” value is “moderately affected” and the “effect on mitochondrial or nuclear areas” value is listed as “did not affect”.
Turning to carboplatin, in assay [3] (SBC3 xenograft FFPE tumors), the “pDRP1 Ser616 immunofluorescence in tumor sections” value is “significant decrease”. Besides, the “reduction in tumor size/weight” value in assay [3] (SBC3 xenograft, day 40, vs control) is given as ~58%. In assay [3] (SBC3 xenograft, Carbo 50 mg/kg, Leflu 7.5 mg/kg, i.p. twice a week), the “average final tumor weight at end of study (day 40)” value was 0.75 ± 0.10 g. The “final tumor weight (day 40)” value in assay [4] was found to be 0.64 ± 0.10 g. For the same compound, in assay [5], the ATP concentration turned out to be 27.92±0.55, the UTP concentration turned out to be 9.29±0.4, the XMP concentration is listed as 0.35±0.18 and the dATP concentration was determined as 0.17±0.002. In assay [5], the dCTP concentration is 0.06±0.004, the dm5UTP concentration is 0.44±0.001 and the xanthosine concentration is listed as 0.094±0.045. In addition, in assay [6], the IC50 stood at 4.12 µM.
With `COc1cc(-n2c(=S)[nH]c3ccccc3c2=O)c(Cl)cc1Cl` [MDIVI1], in assay [2], the “Mitochondrial elongation (Airyscan imaging)” value is reported as “moderately affected” and the “effect on mitochondrial or nuclear areas” value is “did not affect”. The Mitochondrial area in assay [7] is 419.9±13.26 μm^2.
